According to PubChem BioAssay (NCI):
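Interpolation was linear, between the two tested concentrations surrounding the appropriate level; five concentrations were tested over 48 hours in 96-well plates. TGI: concentration producing complete growth inhibition.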

Columns and labels:
Test in all cases: NCI-60 cell line screen, 48 h
NCI-H460 lung = test system: NCI-H460 lung
SW-620 colon = test system: SW-620 colon
DMS 114 small cell lung = test system: DMS 114 small cell lung
SF-295 CNS = test system: SF-295 CNS
NCI-H226 lung = test system: NCI-H226 lung
SK-MEL-2 melanoma = test system: SK-MEL-2 melanoma
K-562 leukemia = test system: K-562 leukemia
HT29 colon = test system: HT29 colon
OVCAR-3 ovarian = test system: OVCAR-3 ovarian
HL-60(TB) leukemia = test system: HL-60(TB) leukemia
SNB-19 CNS = test system: SNB-19 CNS
M19-MEL melanoma = test system: M19-MEL melanoma
EKVX NSCLC = test system: EKVX NSCLC
HOP-18 NSCLC = test system: HOP-18 NSCLC
A549 NSCLC = test system: A549 NSCLC
UACC-257 melanoma = test system: UACC-257 melanoma
M14 melanoma = test system: M14 melanoma
DLD-1 colon = test system: DLD-1 colon
SK-MEL-5 melanoma = test system: SK-MEL-5 melanoma
KM12 colon = test system: KM12 colon
SR leukemia = test system: SR leukemia
HCT-15 colon = test system: HCT-15 colon
U251 CNS = test system: U251 CNS
OVCAR-5 ovarian = test system: OVCAR-5 ovarian
SK-MEL-28 melanoma = test system: SK-MEL-28 melanoma
CCRF-CEM leukemia = test system: CCRF-CEM leukemia
COLO 205 colon = test system: COLO 205 colon
SF-268 CNS = test system: SF-268 CNS
786-0 renal = test system: 786-0 renal
MOLT-4 leukemia = test system: MOLT-4 leukemia
HOP-92 NSCLC = test system: HOP-92 NSCLC
NCI-H23 lung = test system: NCI-H23 lung
SF-539 CNS = test system: SF-539 CNS
RPMI-8226 leukemia = test system: RPMI-8226 leukemia
UO-31 renal = test system: UO-31 renal
ACHN renal = test system: ACHN renal
HCC-2998 colon = test system: HCC-2998 colon
TK-10 renal = test system: TK-10 renal
SN12C renal = test system: SN12C renal
IGROV1 ovarian = test system: IGROV1 ovarian
XF 498 CNS = test system: XF 498 CNS
RXF 393 renal = test system: RXF 393 renal
DMS 273 small cell lung = test system: DMS 273 small cell lung
OVCAR-8 ovarian = test system: OVCAR-8 ovarian
NCI-H522 lung = test system: NCI-H522 lung
SK-OV-3 ovarian = test system: SK-OV-3 ovarian
LXFL 529 NSCLC = test system: LXFL 529 NSCLC
MALME-3M melanoma = test system: MALME-3M melanoma
HOP-62 NSCLC = test system: HOP-62 NSCLC
KM20L2 colon = test system: KM20L2 colon
LOX IMVI melanoma = test system: LOX IMVI melanoma
UACC-62 melanoma = test system: UACC-62 melanoma
SNB-75 CNS = test system: SNB-75 CNS
CAKI-1 renal = test system: CAKI-1 renal
OVCAR-4 ovarian = test system: OVCAR-4 ovarian
SNB-78 CNS = test system: SNB-78 CNS
HCT-116 colon = test system: HCT-116 colon

CC1CCC2(OCCO2)[C@]2(C)CC(O)C(=O)C=C12 (some centres not stated)
TGI (NCI-H460 lung): > 100 µM
TGI (SW-620 colon): > 100 µM
TGI (DMS 114 small cell lung): > 100 µM
TGI (SF-295 CNS): > 100 µM
TGI (NCI-H226 lung): > 100 µM
TGI (SK-MEL-2 melanoma): > 100 µM
TGI (K-562 leukemia): > 100 µM
TGI (HT29 colon): > 100 µM
TGI (OVCAR-3 ovarian): > 100 µM
TGI (HL-60(TB) leukemia): > 100 µM
TGI (SNB-19 CNS): > 100 µM
TGI (M19-MEL melanoma): > 100 µM
TGI (EKVX NSCLC): > 100 µM
TGI (HOP-18 NSCLC): > 100 µM
TGI (A549 NSCLC): > 100 µM
TGI (UACC-257 melanoma): > 100 µM
TGI (M14 melanoma): > 100 µM
TGI (DLD-1 colon): > 100 µM
TGI (SK-MEL-5 melanoma): > 100 µM
TGI (KM12 colon): > 100 µM
TGI (SR leukemia): > 100 µM
TGI (HCT-15 colon): > 100 µM
TGI (U251 CNS): > 100 µM
TGI (OVCAR-5 ovarian): > 100 µM
TGI (SK-MEL-28 melanoma): > 100 µM
TGI (CCRF-CEM leukemia): > 100 µM
TGI (COLO 205 colon): > 100 µM
TGI (SF-268 CNS): > 100 µM
TGI (786-0 renal): > 100 µM
TGI (MOLT-4 leukemia): > 100 µM
TGI (HOP-92 NSCLC): > 100 µM
TGI (NCI-H23 lung): > 100 µM
TGI (SF-539 CNS): > 100 µM
TGI (RPMI-8226 leukemia): > 100 µM
TGI (UO-31 renal): > 100 µM
TGI (ACHN renal): > 100 µM
TGI (HCC-2998 colon): > 100 µM
TGI (TK-10 renal): > 100 µM
TGI (SN12C renal): > 100 µM
TGI (IGROV1 ovarian): > 100 µM
TGI (XF 498 CNS): > 100 µM
TGI (RXF 393 renal): > 100 µM
TGI (DMS 273 small cell lung): > 100 µM
TGI (OVCAR-8 ovarian): > 100 µM
TGI (NCI-H522 lung): > 100 µM
TGI (SK-OV-3 ovarian): > 100 µM
TGI (LXFL 529 NSCLC): > 100 µM
TGI (MALME-3M melanoma): > 100 µM

CCCCCCCCCCCCCC(=O)OC1C(O)C(CO)OC(OC)C1NC(=O)N(CCCl)N=O (configuration not stated)
TGI (NCI-H460 lung): > 100 µM
TGI (SW-620 colon): > 100 µM
TGI (SF-295 CNS): > 100 µM
TGI (NCI-H226 lung): > 100 µM
TGI (SK-MEL-2 melanoma): > 100 µM
TGI (K-562 leukemia): > 100 µM
TGI (HT29 colon): > 100 µM
TGI (OVCAR-3 ovarian): > 100 µM
TGI (SNB-19 CNS): > 100 µM
TGI (HOP-62 NSCLC): > 100 µM
TGI (KM20L2 colon): > 100 µM
TGI (LOX IMVI melanoma): 89.9 µM
TGI (M19-MEL melanoma): > 100 µM
TGI (UACC-62 melanoma): > 100 µM
TGI (HOP-18 NSCLC): > 100 µM
TGI (A549 NSCLC): > 100 µM
TGI (UACC-257 melanoma): 86.8 µM
TGI (M14 melanoma): > 100 µM
TGI (DLD-1 colon): > 100 µM
TGI (SK-MEL-5 melanoma): > 100 µM
TGI (KM12 colon): > 100 µM
TGI (SR leukemia): 93.4 µM
TGI (HCT-15 colon): > 100 µM
TGI (U251 CNS): > 100 µM
TGI (OVCAR-5 ovarian): > 100 µM
TGI (SNB-75 CNS): > 100 µM
TGI (SK-MEL-28 melanoma): > 100 µM
TGI (COLO 205 colon): > 100 µM
TGI (SF-268 CNS): > 100 µM
TGI (CAKI-1 renal): > 100 µM
TGI (MOLT-4 leukemia): 59.8 µM
TGI (NCI-H23 lung): > 100 µM
TGI (SF-539 CNS): 63.5 µM
TGI (RPMI-8226 leukemia): > 100 µM
TGI (UO-31 renal): > 100 µM
TGI (ACHN renal): > 100 µM
TGI (HCC-2998 colon): > 100 µM
TGI (OVCAR-4 ovarian): > 100 µM
TGI (TK-10 renal): > 100 µM
TGI (SN12C renal): > 100 µM
TGI (IGROV1 ovarian): > 100 µM
TGI (XF 498 CNS): > 100 µM
TGI (RXF 393 renal): > 100 µM
TGI (DMS 273 small cell lung): > 100 µM
TGI (OVCAR-8 ovarian): > 100 µM
TGI (NCI-H522 lung): > 100 µM
TGI (LXFL 529 NSCLC): > 100 µM
TGI (MALME-3M melanoma): > 100 µM

O=C(NN1C(=O)C(Cl)C1c1ccc(O)cc1)c1ccccc1O (configuration not stated)
TGI (NCI-H460 lung): 35.7 µM
TGI (DMS 114 small cell lung): 29.6 µM
TGI (SF-295 CNS): 33.9 µM
TGI (NCI-H226 lung): 30.7 µM
TGI (SK-MEL-2 melanoma): 48.3 µM
TGI (K-562 leukemia): > 100 µM
TGI (HT29 colon): 36.1 µM
TGI (OVCAR-3 ovarian): 31.7 µM
TGI (HL-60(TB) leukemia): > 100 µM
TGI (SNB-19 CNS): 43.7 µM
TGI (LOX IMVI melanoma): 31.7 µM
TGI (M19-MEL melanoma): 40.6 µM
TGI (UACC-62 melanoma): 32.3 µM
TGI (SNB-78 CNS): 65.4 µM
TGI (HOP-18 NSCLC): 30.4 µM
TGI (A549 NSCLC): 50 µM
TGI (UACC-257 melanoma): 55.9 µM
TGI (M14 melanoma): 38.4 µM
TGI (DLD-1 colon): 30.6 µM
TGI (SK-MEL-5 melanoma): 27.7 µM
TGI (KM12 colon): 29.5 µM
TGI (HCT-15 colon): 30.6 µM
TGI (U251 CNS): 27.3 µM
TGI (SNB-75 CNS): > 100 µM
TGI (SK-MEL-28 melanoma): 36.5 µM
TGI (CCRF-CEM leukemia): > 100 µM
TGI (SF-268 CNS): 41.2 µM
TGI (786-0 renal): 33.5 µM
TGI (MOLT-4 leukemia): > 100 µM
TGI (NCI-H23 lung): 41.8 µM
TGI (SF-539 CNS): 38.5 µM
TGI (UO-31 renal): 29 µM
TGI (ACHN renal): 34.5 µM
TGI (OVCAR-4 ovarian): 40.4 µM
TGI (TK-10 renal): 70.6 µM
TGI (SN12C renal): 43.7 µM
TGI (HCT-116 colon): 28.5 µM
TGI (IGROV1 ovarian): 27.5 µM
TGI (XF 498 CNS): 23.7 µM
TGI (RXF 393 renal): 27 µM
TGI (DMS 273 small cell lung): 25.5 µM
TGI (OVCAR-8 ovarian): 30.8 µM
TGI (NCI-H522 lung): 34.5 µM
TGI (SK-OV-3 ovarian): 59.5 µM
TGI (LXFL 529 NSCLC): 33.3 µM
TGI (MALME-3M melanoma): 34.5 µM
